According to ChEMBL document CHEMBL1201862, “PubChem BioAssay data set” (2004):
The source made the active and inactive calls.

Columns and labels:
[1] = growth inhibition of PfATP4-mutant resistant parasites – NITD609-resistant line, SYBR Green, dry powder, dose response (AID 1159571); type: functional, cell-based;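 further: parasites synchronized at ring stage by sorbitol before testing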
[2] = growth inhibition of yeast DHODH-expressing 3D7 parasites – SYBR Green, dry powder samples, dose response (AID 1159570); type: functional, cell-based;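 further: parasite growth measured after 72 hours of compound exposure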
[3] = Dd2 malaria parasite growth inhibition potency – SYBR Green, dry powder samples, dose response (AID 1159566); type: functional, cell-based;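 further: potency for growth inhibition with lower SYBR green DNA signal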
[4] = toxicity to human HepG2 hepatoma cells – cell-based, plate reader, dry powder samples, cytotoxicity control, dose response (AID 1159569); type: functional;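 further: inhibitor potency with signal falling toward the positive control level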
[5] = P. falciparum Dd2 growth inhibitors, dose response, SYBR Green, cherry-picked samples (AID 1159567); type: functional, cell-based
[6] = molecular target: T1, Oxysterols receptor LXR-beta (Homo sapiens, UniProt P55055); assay: LXR agonists, Gal4 luciferase reporter, dose response, counter-screen for ssDAF-12 agonist project, cell-based, luminescence, HEK293, S. stercoralis campaign (AID 720737); type: functional; settings: read-out: IC50 (the source's name)
T1 sequence (P55055 whole entry): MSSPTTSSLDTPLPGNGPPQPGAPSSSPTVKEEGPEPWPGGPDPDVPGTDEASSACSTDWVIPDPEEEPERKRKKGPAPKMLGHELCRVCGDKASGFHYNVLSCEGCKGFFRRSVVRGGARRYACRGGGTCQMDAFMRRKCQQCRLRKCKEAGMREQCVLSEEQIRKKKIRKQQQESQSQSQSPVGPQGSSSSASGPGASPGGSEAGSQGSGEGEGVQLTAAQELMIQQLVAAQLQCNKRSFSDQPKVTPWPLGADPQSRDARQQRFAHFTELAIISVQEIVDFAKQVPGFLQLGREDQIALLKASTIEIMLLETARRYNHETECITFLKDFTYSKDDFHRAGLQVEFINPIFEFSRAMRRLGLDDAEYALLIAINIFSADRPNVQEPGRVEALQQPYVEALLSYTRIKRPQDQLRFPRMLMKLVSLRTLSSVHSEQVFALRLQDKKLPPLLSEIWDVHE

[7] = Luminescence-based cell-based high throughput dose response assay to identify activators of the DAF-12 from the parasite S. stercoralis (ssDAF-12).; type: functional
[8] = Potency on glucagon-like peptide 1 release, dose-response in NCI-H716 cell line, half maximal inhibitory concentration (AID 1117344); type: functional, cell-based
[9] = molecular target: T2, Ubiquitin-conjugating enzyme E2 N (Homo sapiens, UniProt P61088); type: functional;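 further: Dose-response confirmation in a TR-FRET assay detecting UBC13-driven polyubiquitin chain formation, inhibition measured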
T2 sequence (P61088 whole entry): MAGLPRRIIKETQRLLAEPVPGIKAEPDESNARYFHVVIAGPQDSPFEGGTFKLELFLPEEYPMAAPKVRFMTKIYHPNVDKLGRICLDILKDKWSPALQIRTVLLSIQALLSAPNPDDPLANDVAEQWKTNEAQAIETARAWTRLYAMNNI

[10] = glucagon-like peptide-1 release potency in STC-1, concentration-response, half-maximal inhibitory concentration in the STC-1 line (AID 1117345); type: functional, cell-based
[11] = molecular target: T3, Sentrin-specific protease 8 (Homo sapiens, UniProt Q96LD8); type: functional;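 further: luminescence read-out of SENP8 inhibition, dose-response confirmation following an ultra-high-throughput screen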
T3 sequence (Q96LD8 whole entry): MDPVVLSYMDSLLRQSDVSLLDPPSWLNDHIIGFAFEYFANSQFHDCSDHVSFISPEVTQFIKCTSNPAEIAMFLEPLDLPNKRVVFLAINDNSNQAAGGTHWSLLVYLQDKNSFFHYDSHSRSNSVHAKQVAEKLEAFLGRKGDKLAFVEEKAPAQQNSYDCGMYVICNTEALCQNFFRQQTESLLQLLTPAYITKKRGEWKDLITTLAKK

[12] = molecular target: T1, Oxysterols receptor LXR-beta; type: functional, cell-based
[13] = molecular target: T4, Sentrin-specific protease 7 (Homo sapiens, UniProt Q9BQF6); type: functional;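 further: Luminescence-based dose-response confirmation of ultra-high-throughput screening hits, measuring inhibition of SENP7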
T4 sequence (Q9BQF6 whole entry): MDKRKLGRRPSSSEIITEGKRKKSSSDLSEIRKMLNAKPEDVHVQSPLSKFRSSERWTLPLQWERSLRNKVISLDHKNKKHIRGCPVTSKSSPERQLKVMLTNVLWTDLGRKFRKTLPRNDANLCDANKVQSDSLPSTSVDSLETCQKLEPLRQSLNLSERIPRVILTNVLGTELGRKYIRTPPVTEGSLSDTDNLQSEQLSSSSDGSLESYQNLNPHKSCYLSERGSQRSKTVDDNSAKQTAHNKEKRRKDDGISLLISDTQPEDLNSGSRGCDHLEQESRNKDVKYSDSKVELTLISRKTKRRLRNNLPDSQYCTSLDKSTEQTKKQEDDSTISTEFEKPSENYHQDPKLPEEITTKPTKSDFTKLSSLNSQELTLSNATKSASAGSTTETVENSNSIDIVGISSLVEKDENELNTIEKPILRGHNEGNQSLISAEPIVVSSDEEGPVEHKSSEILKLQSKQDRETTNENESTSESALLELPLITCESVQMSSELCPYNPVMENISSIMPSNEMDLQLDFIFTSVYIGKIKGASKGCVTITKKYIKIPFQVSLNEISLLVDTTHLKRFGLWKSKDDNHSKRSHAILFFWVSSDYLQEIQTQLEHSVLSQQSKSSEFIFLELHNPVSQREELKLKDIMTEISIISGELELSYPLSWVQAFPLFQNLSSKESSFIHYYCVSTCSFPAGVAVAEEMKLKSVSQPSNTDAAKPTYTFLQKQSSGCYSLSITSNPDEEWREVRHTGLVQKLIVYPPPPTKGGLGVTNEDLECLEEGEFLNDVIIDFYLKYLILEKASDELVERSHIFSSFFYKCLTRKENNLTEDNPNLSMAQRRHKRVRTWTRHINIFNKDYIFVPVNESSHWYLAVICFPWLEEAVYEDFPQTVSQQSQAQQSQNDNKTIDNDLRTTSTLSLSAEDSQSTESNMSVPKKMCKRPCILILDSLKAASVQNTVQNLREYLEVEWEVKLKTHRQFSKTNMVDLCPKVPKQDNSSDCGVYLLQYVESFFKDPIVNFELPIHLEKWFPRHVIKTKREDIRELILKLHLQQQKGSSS

[14] = molecular target: T5, Caspase-3 (Homo sapiens, UniProt P42574); type: functional;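 further: Dose-response selectivity test against caspase-3 for candidate inhibitors of sentrin-specific proteases (SENPs)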
T5 sequence (P42574 whole entry): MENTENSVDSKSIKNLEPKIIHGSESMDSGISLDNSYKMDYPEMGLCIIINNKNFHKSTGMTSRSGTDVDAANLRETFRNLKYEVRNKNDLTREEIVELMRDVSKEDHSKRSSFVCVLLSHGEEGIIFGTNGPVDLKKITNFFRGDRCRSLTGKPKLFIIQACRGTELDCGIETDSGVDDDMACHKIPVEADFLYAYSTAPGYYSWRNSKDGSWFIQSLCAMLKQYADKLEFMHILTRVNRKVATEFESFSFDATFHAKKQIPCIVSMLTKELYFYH

[15] = molecular target: T6, Sentrin-specific protease 6 (Homo sapiens, UniProt Q9GZR1); type: functional;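 further: Luminescence-based dose-response confirmatory assay of SENP6 inhibition, following up an ultra-high-throughput screen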
T6 sequence (Q9GZR1 whole entry): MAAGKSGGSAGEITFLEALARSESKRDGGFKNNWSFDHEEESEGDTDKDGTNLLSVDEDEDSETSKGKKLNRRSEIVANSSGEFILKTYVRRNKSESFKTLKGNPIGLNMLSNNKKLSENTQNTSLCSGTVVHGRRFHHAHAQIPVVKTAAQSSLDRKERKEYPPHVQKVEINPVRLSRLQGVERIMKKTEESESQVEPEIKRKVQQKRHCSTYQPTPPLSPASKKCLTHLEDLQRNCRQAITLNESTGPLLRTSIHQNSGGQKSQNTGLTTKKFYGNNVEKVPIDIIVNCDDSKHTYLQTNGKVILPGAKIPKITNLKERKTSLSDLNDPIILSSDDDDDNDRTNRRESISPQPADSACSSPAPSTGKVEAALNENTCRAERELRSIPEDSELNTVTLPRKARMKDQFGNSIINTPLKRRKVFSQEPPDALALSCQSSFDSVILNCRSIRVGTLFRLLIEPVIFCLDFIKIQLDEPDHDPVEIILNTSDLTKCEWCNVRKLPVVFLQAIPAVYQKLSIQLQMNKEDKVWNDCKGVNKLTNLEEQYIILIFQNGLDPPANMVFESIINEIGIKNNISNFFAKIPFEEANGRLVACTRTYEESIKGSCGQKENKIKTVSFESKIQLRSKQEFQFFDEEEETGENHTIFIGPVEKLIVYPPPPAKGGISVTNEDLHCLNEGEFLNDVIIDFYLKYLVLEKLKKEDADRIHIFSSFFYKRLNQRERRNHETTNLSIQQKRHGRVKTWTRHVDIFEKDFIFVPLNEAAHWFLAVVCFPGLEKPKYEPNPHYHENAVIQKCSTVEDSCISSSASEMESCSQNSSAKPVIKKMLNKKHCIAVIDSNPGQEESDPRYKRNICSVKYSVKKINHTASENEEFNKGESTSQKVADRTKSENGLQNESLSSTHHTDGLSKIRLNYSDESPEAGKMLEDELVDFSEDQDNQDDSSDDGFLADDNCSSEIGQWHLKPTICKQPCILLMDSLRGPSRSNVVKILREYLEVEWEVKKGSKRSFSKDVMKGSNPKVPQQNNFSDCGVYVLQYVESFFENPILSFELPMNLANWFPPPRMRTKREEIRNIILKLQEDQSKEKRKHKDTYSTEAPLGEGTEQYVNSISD

[16] = cells
[17] = molecular target: T7, Heat shock factor protein 1 (Mus musculus, UniProt P38532); assay: enhancement of HSF1-driven luciferase signal – cell-based, NIH3T3, luminescence, dose retest, confirmation (AID 435004); type: functional;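 further: stress induced by proteasome inhibitor MG132 added 30 min after compound; luciferase reporter driven by HSF1 response element in NIH3T3 cells; actives raise luminescence as potentiators of the MG132 stress response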
T7 sequence (P38532 whole entry): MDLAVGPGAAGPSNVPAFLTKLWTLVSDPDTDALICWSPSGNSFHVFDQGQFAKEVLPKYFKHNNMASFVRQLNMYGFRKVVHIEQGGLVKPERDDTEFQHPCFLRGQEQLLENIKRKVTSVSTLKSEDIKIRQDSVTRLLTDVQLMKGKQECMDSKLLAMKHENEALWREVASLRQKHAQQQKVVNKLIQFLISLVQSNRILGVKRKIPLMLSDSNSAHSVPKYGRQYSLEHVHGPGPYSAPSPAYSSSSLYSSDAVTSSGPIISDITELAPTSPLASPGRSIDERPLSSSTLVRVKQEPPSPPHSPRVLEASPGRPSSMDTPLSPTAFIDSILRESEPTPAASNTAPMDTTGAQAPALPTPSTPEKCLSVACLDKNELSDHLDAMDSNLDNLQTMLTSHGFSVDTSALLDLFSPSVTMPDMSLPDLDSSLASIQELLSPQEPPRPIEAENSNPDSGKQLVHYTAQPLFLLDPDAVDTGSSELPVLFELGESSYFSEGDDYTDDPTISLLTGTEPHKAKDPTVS

CC(C)(C)[S@+]([O-])N1Cc2cc(C(=O)NCCN3CCCCC3)nc(-c3cccc(-c4cccc(C#N)c4)c3)c2[C@@H]1CCO
AC50 [1]: 1.8 µM (active)
AC50 [2]: 629 nM (active)
AC50 [3]: 643 nM (active)
AC50 [4]: 91.7 µM (active)
AC50 [5]: 606 nM (active)

CNCC(O)Cn1c2c(c3ccccc31)CCCC2 (stereo not drawn)
EC50 [6]: > 67.6 µM (inactive)
IC50 [7]: > 67.6 µM (inactive)

CN(C(=O)CN(CCO)CC(=O)N(C)C(C)(C)Cc1ccccc1)C(C)(C)Cc1ccccc1 [OXETHAZAINE]
IC50 [8]: 25.1 µM (inactive)
IC50 [9]: > 20 µM (inactive)
IC50 [10]: > 40 µM (inactive)

Cc1ccc(C(=O)Nc2ccc3c(c2)OCO3)cc1
EC50 [6]: > 67.5 µM (inactive)
IC50 [7]: > 67.5 µM (inactive)

O=C(c1cccnc1)N1CC(=O)N2[C@H](C1)[C@@H](c1ccc(-c3cccnc3)cc1)[C@@H]2CO
AC50 [1]: 0.693 µM (active)
AC50 [2]: 938 nM (active)
AC50 [3]: 553 nM (active)
AC50 [4]: > 100 µM (inactive)
AC50 [5]: 497 nM (active)

Cc1ccc(-c2cc(-c3ccccc3)no2)cc1
IC50 [11]: 23.7 µM (active)
EC50 [12]: > 67.5 µM (inactive)
IC50 [13]: 14.3 µM (active)
IC50 [14]: 21.7 µM (active)
IC50 [15]: 18.6 µM (active)
EC50 [16]: > 67.5 µM (inactive)

O=C(Nc1ccccn1)c1ccc2ccccc2n1
EC50 [6]: > 67.5 µM (inactive)
EC50 [17]: > 260 µM (inactive)
IC50 [7]: > 67.5 µM (inactive)

O=C(Nc1ccc(S(=O)(=O)N2CCOCC2)cc1)c1cc(Cl)ccc1NS(=O)(=O)c1ccc(Cl)s1
IC50 [8]: > 40 µM (inactive)
IC50 [10]: > 40 µM (inactive)
